This is an account of results in patent US20240383953A1, “NOVEL NAN[…] NANOG PRION-LIKE REPEATS” (BAYLOR COLLEGE OF MEDICINE, priority 2021, published 2024).

Residues, ends and D or L forms follow the SMILES beside them.

The first data set in a line: WR peptide solubility (supernatant to pellet ratio after centrifugation). It is filed as physicochemical. The following applies: 0.1 and 0.2 mg/mL. The method, then: FIGS. 7A-7H provide data and illustrations related to the fibrillation propensities of NANOG WR-derived peptides. FIG. 7A illustrates NANOG domain organization and the human and mouse NANOG WR-derived peptides used in Example 2. […] Right panels show aggregation kinetics for peptides 1-3 w (top) and 1-4 w (bottom) after 1 min equilibration. Similar results were obtained from two independent experiments. […] Similar results were obtained from two independent experiments. […] Similar results were obtained from two independent experiments. […] Similar results were obtained from two independent preparations. […]
(§1) Amino acids of the synthesized peptides were classified into aromatic, polar, charged and structure breakers (FIG. 7B). Applicant observed a striking degree of correlation between amino acid type distribution, and the peptide's solubilities and aggregation propensities, as monitored by Thioflavin T (ThT, amyloid binding dye) aggregation kinetics assay (FIGS. 7B-7D). Formation of β-sheet fibrils were confirmed by CD spectroscopy and Transmission Electron Microscopy. Hydrophobic/aromatic residues as well as polar residues such as Gln and Asn are commonly found in amyloid or prion-like domains. On the other hand, charged and ‘structure breaker’ residues such as Gly and Pro contribute to the peptide's higher solubility. […] Aggregation kinetics was rapid; 1-4w reached maximal ThT fluorescence within 2-3 min and 1-3w ˜20 min (FIG. 7D).
Take `CC[C@H](C)[C@H](NC(=O)[C@H](CC(N)=O)NC(=O)[C@H](CCC(N)=O)NC(=O)[C@@H](NC(=O)[C@H](CCC(N)=O)NC(=O)[C@H](CC(N)=O)NC(=O)[C@H](CO)NC(=O)[C@H](C)NC(=O)[C@@H](NC(=O)[C@H](CO)NC(=O)[C@H](CC(N)=O)NC(=O)[C@H](CC(N)=O)NC(=O)[C@H](C)NC(=O)[C@@H](NC(=O)[C@H](CCC(N)=O)NC(=O)[C@H](CC(N)=O)NC(=O)[C@H](CO)NC(=O)[C@H](C)N)[C@@H](C)O)[C@@H](C)O)[C@@H](C)O)C(=O)N[C@@H](CCC(N)=O)C(=O)N[C@@H](CO)C(=O)N[C@@H](Cc1c[nH]c2ccccc12)C(=O)N[C@@H](CO)C(=O)N[C@@H](CC(N)=O)C(=O)N[C@@H](Cc1c[nH]cn1)C(=O)N[C@@H](CO)C(=O)N[C@@H](CCCCN)C(=O)O` [1-4wa] (H-ASNQTANNSTASNQTQNIQSWSNHSK-OH; N-terminus and C-terminus assumed): the peptide solubility entry is reported as “increased solubility”. The same measure, in the same setting: in the case of “WCTQSWNNQAWNSPFYNCGEESK [6-8w, human C-terminal WR repeats]” it was “relatively higher solubility”. On the same count and under the same terms, the result for `C[C@@H](O)[C@H](NC(=O)[C@H](CCC(N)=O)NC(=O)[C@H](CC(N)=O)NC(=O)[C@H](CO)NC(=O)[C@@H](N)Cc1c[nH]c2ccccc12)C(=O)N[C@@H](CCCCN)C(=O)O` [1w, WSNQTK] (H-WSNQTK-OH; N-terminus and C-terminus assumed) reads “very soluble”. Same read-out and setting: the result for `C[C@H](NC(=O)[C@H](CCC(N)=O)NC(=O)[C@H](CO)NC(=O)[C@H](CO)NC(=O)[C@H](Cc1c[nH]c2ccccc12)NC(=O)[C@@H](NC(=O)[C@@H]1CCCN1C(=O)[C@H](CC(N)=O)NC(=O)[C@@H](NC(=O)[C@@H](N)Cc1c[nH]c2ccccc12)[C@@H](C)O)[C@@H](C)O)C(=O)N[C@@H](Cc1c[nH]c2ccccc12)C(=O)N[C@H](C(=O)N[C@@H](C)C(=O)N[C@@H](CCC(N)=O)C(=O)N[C@@H](CO)C(=O)N[C@@H](Cc1c[nH]c2ccccc12)C(=O)N[C@@H](CC(N)=O)C(=O)NCC(=O)N[C@@H](CCC(N)=O)C(=O)N1CCC[C@H]1C(=O)N[C@@H](Cc1c[nH]c2ccccc12)C(=O)N[C@@H](CC(N)=O)C(=O)N[C@@H](C)C(=O)N[C@@H](C)C(=O)N1CCC[C@H]1C(=O)N[C@@H](CCCCN)C(=O)O)[C@@H](C)O` [m6-10w] (H-WTNPTWSSQAWTAQSWNGQPWNAAPK-OH; N-terminus and C-terminus assumed) reads “relatively higher solubility”; that for “WNTQTWCTQSWNNQAWNSPFYNCGEESK [5-8w, human C-terminal WR repeats]”, “relatively higher solubility”; that for `C[C@@H](O)[C@H](NC(=O)[C@H](CO)NC(=O)[C@H](CC(N)=O)NC(=O)[C@H](CC(N)=O)NC(=O)[C@H](Cc1c[nH]c2ccccc12)NC(=O)[C@@H](NC(=O)[C@H](CCC(N)=O)NC(=O)[C@H](CC(N)=O)NC(=O)[C@H](CO)NC(=O)[C@@H](N)Cc1c[nH]c2ccccc12)[C@@H](C)O)C(=O)N[C@@H](CCCCN)C(=O)O` [1-2w] (H-WSNQTWNNSTK-OH; N-terminus and C-terminus assumed), “very soluble”.

For `CC[C@H](C)[C@H](NC(=O)[C@H](CC(N)=O)NC(=O)[C@H](CCC(N)=O)NC(=O)[C@@H](NC(=O)[C@H](CCC(N)=O)NC(=O)[C@H](CC(N)=O)NC(=O)[C@H](CO)NC(=O)[C@H](Cc1c[nH]c2ccccc12)NC(=O)[C@@H](NC(=O)[C@H](CO)NC(=O)[C@H](CC(N)=O)NC(=O)[C@H](CC(N)=O)NC(=O)[C@H](Cc1c[nH]c2ccccc12)NC(=O)[C@@H](NC(=O)[C@H](CCC(N)=O)NC(=O)[C@H](CC(N)=O)NC(=O)[C@H](CO)NC(=O)[C@@H](N)Cc1c[nH]c2ccccc12)[C@@H](C)O)[C@@H](C)O)[C@@H](C)O)C(=O)N[C@@H](CCC(N)=O)C(=O)N[C@@H](CO)C(=O)N[C@@H](Cc1c[nH]c2ccccc12)C(=O)N[C@@H](CO)C(=O)N[C@@H](CC(N)=O)C(=O)N[C@@H](Cc1c[nH]cn1)C(=O)N[C@@H](CO)C(=O)N[C@@H](CCCCN)C(=O)O` [1-4w] (H-WSNQTWNNSTWSNQTQNIQSWSNHSK-OH; N-terminus and C-terminus assumed), the peptide solubility result is “more insoluble”.

Turning to `C[C@@H](O)[C@H](NC(=O)[C@H](CCC(N)=O)NC(=O)[C@H](CC(N)=O)NC(=O)[C@H](CO)NC(=O)[C@H](Cc1c[nH]c2ccccc12)NC(=O)[C@@H](NC(=O)[C@H](CO)NC(=O)[C@H](CC(N)=O)NC(=O)[C@H](CC(N)=O)NC(=O)[C@H](Cc1c[nH]c2ccccc12)NC(=O)[C@@H](NC(=O)[C@H](CCC(N)=O)NC(=O)[C@H](CC(N)=O)NC(=O)[C@H](CO)NC(=O)[C@@H](N)Cc1c[nH]c2ccccc12)[C@@H](C)O)[C@@H](C)O)C(=O)N[C@@H](CCCCN)C(=O)O` [1-3w] (H-WSNQTWNNSTWSNQTK-OH; N-terminus and C-terminus assumed), the peptide solubility result is recorded as “more insoluble”. On the same count and under the same terms, in the case of `C[C@@H](O)[C@H](NC(=O)[C@H](CCC(N)=O)NC(=O)[C@H](CC(N)=O)NC(=O)[C@H](CO)NC(=O)[C@H](Cc1c[nH]c2ccccc12)NC(=O)[C@@H](NC(=O)[C@H](CO)NC(=O)[C@H](CC(N)=O)NC(=O)[C@H](CC(N)=O)NC(=O)[C@H](Cc1c[nH]c2ccccc12)NC(=O)[C@@H](NC(=O)[C@H](CCC(N)=O)NC(=O)[C@H](CC(N)=O)NC(=O)[C@H](CO)NC(=O)[C@@H](N)Cc1c[nH]c2ccccc12)[C@@H](C)O)[C@@H](C)O)C(=O)N[C@@H](CCCNC(=N)N)C(=O)N[C@@H](CCCNC(=N)N)C(=O)N[C@@H](CCCNC(=N)N)C(=O)N[C@@H](CCCNC(=N)N)C(=O)N[C@@H](CCCNC(=N)N)C(=O)N[C@@H](CCCNC(=N)N)C(=O)N[C@@H](CCCCN)C(=O)N[C@@H](CCCCN)C(=O)N[C@@H](CS)C(=O)O` [1-3wRRK] (H-WSNQTWNNSTWSNQTRRRRRRKKC-OH; N-terminus and C-terminus assumed) it was “very soluble”; in that of `C[C@@H](O)[C@H](NC(=O)[C@H](CCC(N)=O)NC(=O)[C@H](CC(N)=O)NC(=O)[C@H](CC(N)=O)NC(=O)[C@H](Cc1c[nH]c2ccccc12)NC(=O)[C@@H](NC(=O)[C@@H]1CCCN1C(=O)[C@H](CC(N)=O)NC(=O)[C@@H](NC(=O)[C@H](Cc1c[nH]c2ccccc12)NC(=O)[C@@H](NC(=O)[C@H](CCC(N)=O)NC(=O)[C@H](CO)NC(=O)[C@H](CO)NC(=O)[C@H](Cc1c[nH]c2ccccc12)NC(=O)[C@@H](NC(=O)[C@@H]1CCCN1C(=O)[C@H](CC(N)=O)NC(=O)[C@@H](NC(=O)[C@H](Cc1c[nH]c2ccccc12)NC(=O)[C@@H](NC(=O)[C@H](CCC(N)=O)NC(=O)[C@H](CO)NC(=O)CNC(=O)[C@@H](N)Cc1c[nH]c2ccccc12)[C@@H](C)O)[C@@H](C)O)[C@@H](C)O)[C@@H](C)O)[C@@H](C)O)[C@@H](C)O)C(=O)N[C@@H](CCCCN)C(=O)O` [m1-5w] (H-WGSQTWTNPTWSSQTWTNPTWNNQTK-OH; N-terminus and C-terminus assumed), “relatively higher solubility”.

A further data set can be described thus: WR peptide aggregation kinetics by ThT fluorescence. It counts as physicochemical.
Conditions: not given
The method, then:
FIGS. 7A-7H provide data and illustrations related to the fibrillation propensities of NANOG WR-derived peptides. FIG. 7A illustrates NANOG domain organization and the human and mouse NANOG WR-derived peptides used in Example 2. […] Right panels show aggregation kinetics for peptides 1-3 w (top) and 1-4 w (bottom) after 1 min equilibration. Similar results were obtained from two independent experiments. […] Similar results were obtained from two independent experiments. […] Similar results were obtained from two independent experiments. […] Similar results were obtained from two independent preparations.
as §1, with “domains.” for “domains. On the other hand, charged and ‘structure breaker’ residues such as Gly and Pro contribute to the peptide's higher solubility.”
As to “WCTQSWNNQAWNSPFYNCGEESK [6-8w, human C-terminal WR repeats]”, the “aggregation kinetics” value was “slower aggregation kinetics”. Same read-out and setting: the result for “WNTQTWCTQSWNNQAWNSPFYNCGEESK [5-8w, human C-terminal WR repeats]” reads “slower aggregation kinetics”.
